Results: article PMC6036575, “Reincarnation of Bacteriocins From the Lactobacillus Pangenomic Graveyard” (Frontiers in Microbiology, 2018)
No end group written: not given here.

Assays:
32 indicator strains = assay: Well diffusion assays against the panel of 32 indicator strains; assay type: cell-based; details: for antimicrobial activity / spectrum, in words: crude supernatant from the E. coli heterologous host, pediocin PA-1 leader; for Total no. of strains inhibited: of 32 indicator strains, supernatant of E. coli transformants encoding the pediocin leader
Method: (§1) Bacteriocin activity was determined using well diffusion assays (WDAs). For Tuner^TM (DE3) E. coli transformants both the cell supernatant and the cell lysates were analyzed for antimicrobial activity, whilst only the supernatants were analyzed for L. paracasei NFBC338 cells. Supernatant was isolated by centrifugation of the liquid cultures at 4000 RCF for 15 min, these supernatants were then filtered using 0.20 μm membrane filters. For cell lysates, cell pellets were resuspended in 5 ml of phosphate-buffered saline (PBS), cells were lysed by sonication using a MSE Soniprep 150 (MSE, London, UK). Lysates were subsequently centrifuged at 4000 RCF for 15 min and the resulting supernatants were filtered using 0.20 μm membrane filters. For the indicator plates, 50 μl of an overnight culture of the indicator strain was added to the appropriate media containing 1% agar. Plates were cooled and 7 mm wells were bored in the agar. 50 μl of the cell supernatants/lysates being tested were added to each well and plates were refrigerated for 2 h prior to incubation under the appropriate conditions. WDAs were carried out in triplicate for each bacteriocin.
(§2) E. coli Tuner^TM (DE3) cells transformed with the newly constructed plasmids were grown in LB supplemented with glucose to maintain a low-copy number and bacteriocin expression was induced by co-incubation of the clones with 50 μM IPTG for 3 h. WDAs were used to identify bacteriocin activity from the bacterial supernatants and cell lysates. Bacteriocins were exclusively found in the bacterial supernatant. Antimicrobial activity was lower in cases where the native leader of the bacteriocin sequence was used; with only four of the nine strains displaying zones of inhibition against a sensitive indicator (pediocin 20336a has an identical leader to pediocin PA-1). For expression in L. paracasei NFBC338, cells were transformed by electroporation with the bacteriocin-containing pNZ44 vectors. Positive transformants were grown overnight and the neutralized cell free supernatant was used to identify bacteriocin production in WDAs.
(§3) The spectrum of activity was determined using WDAs against 32 indicator strains for bacteriocins produced by the E. coli transformants encoding the pediocin leader (Table 2). Despite being of the same class of bacteriocins, these novel antimicrobials display a varying spectrum of activity. […] Many of these bacteriocins, however, can inhibit a wide range of Gram positive bacteria including potential pathogens such as Enterococcus faecalis. As with most class IIa bacteriocins, these also display potent anti-listerial activity.

L. innocua DPC3572 = assay: Bacteriocin activity (BU/ml), dilution series in well diffusion assay; assay type: cell-based, Listeria innocua; details: inverse of the highest dilution of bacterial supernatant showing activity in a well diffusion assay
Method: as §1, §2

[1] = test system: Li. monocytogenes DPC 6893; assay: Well diffusion assay, spectrum of bacteriocin activity; assay type: cell-based; details: 50 μl filtered supernatant of E. coli Tuner (DE3) transformants encoding the pediocin PA-1 leader, 7 mm wells, triplicate
Method: as §1, §2, §3

[2] = test system: L. paralimentarius DSM 13961; assay: as above; assay type: cell-based; details: 50 μl filtered supernatant of E. coli Tuner (DE3) transformants encoding the pediocin PA-1 leader, 7 mm wells, triplicate
Method: as §1, §2, §3

L. plantarum DSM 13273 = assay: as above; assay type: cell-based; details: 50 μl filtered supernatant of E. coli Tuner (DE3) transformants encoding the pediocin PA-1 leader, 7 mm wells, triplicate
Method: as §1, §2, §3

E.mundtii LMG 10748 = assay: as above; assay type: cell-based; details: 50 μl filtered supernatant of E. coli Tuner (DE3) transformants encoding the pediocin PA-1 leader, 7 mm wells, triplicate
Method: as §1, §2, §3

[3] = test system: P. ethanolidurans DSM 22301; assay: as above; assay type: cell-based; details: 50 μl filtered supernatant of E. coli Tuner (DE3) transformants encoding the pediocin PA-1 leader, 7 mm wells, triplicate
Method: as §1, §2, §3

[4] = test system: Pediococcus stilesii DSM 18001; assay: as above; assay type: cell-based; details: 50 μl filtered supernatant of E. coli Tuner (DE3) transformants encoding the pediocin PA-1 leader, 7 mm wells, triplicate
Method: as §1, §2, §3

L. kimchicus JCM 15530 = assay: as above; assay type: cell-based; details: 50 μl filtered supernatant of E. coli Tuner (DE3) transformants encoding the pediocin PA-1 leader, 7 mm wells, triplicate
Method: as §1, §2, §3

L. mali DSM 20444 = assay: as above; assay type: cell-based; details: 50 μl filtered supernatant of E. coli Tuner (DE3) transformants encoding the pediocin PA-1 leader, 7 mm wells, triplicate
Method: as §1, §2, §3

L. apodemi DSM 16654 = assay: as above; assay type: cell-based; details: 50 μl filtered supernatant of E. coli Tuner (DE3) transformants encoding the pediocin PA-1 leader, 7 mm wells, triplicate
Method: as §1, §2, §3

[5] = test system: Enterococcus faecalis LMG 7397; assay: as above; assay type: cell-based; details: 50 μl filtered supernatant of E. coli Tuner (DE3) transformants encoding the pediocin PA-1 leader, 7 mm wells, 1% agar, triplicate
Method: as §1, §2, §3

L. nodensis DSM 16982 = assay: as above; assay type: cell-based; details: 50 μl filtered supernatant of E. coli Tuner (DE3) transformants encoding the pediocin PA-1 leader, 7 mm wells, triplicate
Method: as §1, §2, §3

L. crustorum JCM 15951 = assay: as above; assay type: cell-based; details: 50 μl filtered supernatant of E. coli Tuner (DE3) transformants encoding the pediocin PA-1 leader, 7 mm wells, triplicate
Method: as §1, §2, §3

[6] = test system: Li. monocytogenes WSL 1416; assay: as above; assay type: cell-based; details: 50 μl filtered supernatant of E. coli Tuner (DE3) transformants encoding the pediocin PA-1 leader, 7 mm wells, triplicate
Method: as §1, §2, §3

[7] = test system: Li. monocytogenes DPC 6894; assay: as above; assay type: cell-based; details: 50 μl filtered supernatant of E. coli Tuner (DE3) transformants encoding the pediocin PA-1 leader, 7 mm wells, triplicate
Method: as §1, §2, §3

[8] = test system: E. saccharolyticus DPC 4902; assay: as above; assay type: cell-based; details: 50 μl filtered supernatant of E. coli Tuner (DE3) transformants encoding the pediocin PA-1 leader, 7 mm wells, triplicate
Method: as §1, §2, §3

L. amylophilus DSM 20509 = assay: as above; assay type: cell-based; details: 50 μl filtered supernatant of E. coli Tuner (DE3) transformants encoding the pediocin PA-1 leader, 7 mm wells, triplicate
Method: as §1, §2, §3

[9] = test system: Listeria innocua DPC 3572; assay: as above; assay type: cell-based; details: 50 μl filtered supernatant of E. coli Tuner (DE3) transformants encoding the pediocin PA-1 leader, 7 mm wells, triplicate
Method: as §1, §2, §3

P. clausenii DSM 14800 = assay: as above; assay type: cell-based; details: 50 μl filtered supernatant of E. coli Tuner (DE3) transformants encoding the pediocin PA-1 leader, 7 mm wells, triplicate
Method: as §1, §2, §3

L. amylovorus DSM 20531 = assay: as above; assay type: cell-based; details: 50 μl filtered supernatant of E. coli Tuner (DE3) transformants encoding the pediocin PA-1 leader, 7 mm wells, triplicate
Method: as §1, §2, §3

[10] = produced by E. coli Tuner (DE3)
[11] = produced by L. paracasei NFBC338, neutralized cell free supernatant

Substance | antimicrobial activity / spectrum, in words (32 indicator strains) | Total no. of strains inhibited (32 indicator strains) | Bacteriocin Activity (BU/ml) vs. L. innocua DPC3572 (L. innocua DPC3572; [10]) | Bacteriocin Activity (BU/ml) vs. L. innocua DPC3572 (L. innocua DPC3572; [11]) | radius of the zone of inhibition [1] | radius of the zone of inhibition [2] | radius of the zone of inhibition (L. plantarum DSM 13273) | radius of the zone of inhibition (E.mundtii LMG 10748) | radius of the zone of inhibition [3] | radius of the zone of inhibition [4] | radius of the zone of inhibition (L. mali DSM 20444) | radius of the zone of inhibition (L. apodemi DSM 16654) | radius of the zone of inhibition [5] | radius of the zone of inhibition (L. crustorum JCM 15951) | radius of the zone of inhibition [6] | radius of the zone of inhibition [7] | radius of the zone of inhibition [8] | radius of the zone of inhibition (L. amylophilus DSM 20509) | radius of the zone of inhibition [9] | radius of the zone of inhibition (P. clausenii DSM 14800) | also measured
–KYYGNGLYCG-KHSCSVDWGKATTCIINNGAMAWATGGHQGTHKC—— (bicyclic or more) [Pediocin 20336a (Ped20336), novel pediocin-like class IIa bacteriocin encoded by P. pentosaceus DSM 20336, heterologously expressed] | inhibited the growth of a larger number of the indicators tested than pediocin PA-1 | 18 | + (+ = 0 – 160 BU/ml) | + (+ = 0 – 160 BU/ml) | 2.67 ± 0.47 millimeters | 1 ± 0.47 millimeters | 1.33 ± 0.47 millimeters | 4.67 ± 0.47 millimeters | 5.67 ± 0.47 millimeters | 1 ± 0 millimeters | 6.33 ± 0.47 millimeters | 3.67 ± 0.47 millimeters | 4 ± 0 millimeters | 1 ± 0 millimeters | 3.33 ± 0.94 millimeters | 4.33 ± 0.47 millimeters | 5.67 ± 0.47 millimeters | 0.33 ± 0.47 millimeters | 7.33 ± 0.47 millimeters | 0.67 ± 0.47 millimeters | radius of the zone of inhibition (L. kimchicus JCM 15530): 0.33 ± 0.47 millimeters; radius of the zone of inhibition (L. nodensis DSM 16982): 1.67 ± 0.47 millimeters
–KYYGNGVSCTKKHGCKVNWGQAFTCSVNRFANFGH–G————-NC— (bicyclic or more) [Hordeiocin (Hrd), novel pediocin-like class IIa bacteriocin encoded by L. hordei DSM 19519, heterologously expressed] | inhibited the growth of a larger number of the indicators tested than pediocin PA-1 | 18 | +++ (+++ = 5120 – 10240 BU/ml) | ++ (++ = 320 – 2560 BU/ml) | 2 ± 0 millimeters | 1 ± 0.47 millimeters | 1.33 ± 0.47 millimeters | 2.67 ± 0.47 millimeters | 3.67 ± 0.47 millimeters | 1 ± 0 millimeters | 4.33 ± 0.47 millimeters | 2.67 ± 0.47 millimeters | 2.67 ± 0.47 millimeters | 1 ± 0 millimeters | 2 ± 0.82 millimeters | 4 ± 0 millimeters | 3.67 ± 0.47 millimeters | 2.50 ± 0.41 millimeters | 4.67 ± 0.47 millimeters | 2 ± 0 millimeters | radius of the zone of inhibition (L. kimchicus JCM 15530): 3 ± 0 millimeters; radius of the zone of inhibition (L. nodensis DSM 16982): 3.67 ± 0.47 millimeters
–KYYGNGVTCG-KHSCSVDWGKATTCIINNGAMAWATGGHQGNHKC—– (bicyclic or more) (KYYGNGVTCGKHSCSVDWGKATTCIINNGAMAWATGGHQGNHKC; not fully specified (bridges); cysteine pairing not given here; UniProt P29430 19-62, looked up) [Pediocin PA-1 (PedA), original class IIa bacteriocin of P. acidilactici LMG 2351, used as a control; heterologously expressed, reference compound] |  | 14 | + (+ = 0 – 160 BU/ml) | ++ (++ = 320 – 2560 BU/ml) | 3 ± 0 millimeters | 0.67 ± 0.47 millimeters | 0.33 ± 0.47 millimeters | 5 ± 0 millimeters | 5.67 ± 0.47 millimeters | 1 ± 0 millimeters | 7.67 ± 0.47 millimeters | 3.33 ± 0.47 millimeters | 4.33 ± 0.47 millimeters | 0.33 ± 0.47 millimeters | 3.33 ± 0.94 millimeters | 5 ± 0 millimeters | 6 ± 0 millimeters |  | 8 ± 0 millimeters |  | 
–KYYGNGVYCG-KHKCRVDWGQAWGCSVNRWGAAVGTGGKATIGHC— (bicyclic or more) [Ruminicin (Rum), novel pediocin-like class IIa bacteriocin encoded by L. ruminis DSM 20403, heterologously expressed] |  | 14 | +++ (+++ = 5120 – 10240 BU/ml) | +++ (+++ = 5120 – 10240 BU/ml) | 1 ± 0 millimeters |  |  | 2 ± 0 millimeters | 2.17 ± 0.24 millimeters |  | 2 ± 0 millimeters | 1.67 ± 0.47 millimeters | 1.17 ± 0.24 millimeters | 0.33 ± 0.47 millimeters | 1 ± 0 millimeters | 2 ± 0 millimeters | 2 ± 0 millimeters | 1.33 ± 0.47 millimeters | 3.33 ± 0.47 millimeters | 1 ± 0 millimeters | radius of the zone of inhibition (L. amylovorus DSM 20531): 0.67 millimeters
